For assay [1], the target named is T1, Protein deacetylase HDAC6 (Homo sapiens, UniProt Q9UBN7).
T1 sequence (Q9UBN7 whole entry): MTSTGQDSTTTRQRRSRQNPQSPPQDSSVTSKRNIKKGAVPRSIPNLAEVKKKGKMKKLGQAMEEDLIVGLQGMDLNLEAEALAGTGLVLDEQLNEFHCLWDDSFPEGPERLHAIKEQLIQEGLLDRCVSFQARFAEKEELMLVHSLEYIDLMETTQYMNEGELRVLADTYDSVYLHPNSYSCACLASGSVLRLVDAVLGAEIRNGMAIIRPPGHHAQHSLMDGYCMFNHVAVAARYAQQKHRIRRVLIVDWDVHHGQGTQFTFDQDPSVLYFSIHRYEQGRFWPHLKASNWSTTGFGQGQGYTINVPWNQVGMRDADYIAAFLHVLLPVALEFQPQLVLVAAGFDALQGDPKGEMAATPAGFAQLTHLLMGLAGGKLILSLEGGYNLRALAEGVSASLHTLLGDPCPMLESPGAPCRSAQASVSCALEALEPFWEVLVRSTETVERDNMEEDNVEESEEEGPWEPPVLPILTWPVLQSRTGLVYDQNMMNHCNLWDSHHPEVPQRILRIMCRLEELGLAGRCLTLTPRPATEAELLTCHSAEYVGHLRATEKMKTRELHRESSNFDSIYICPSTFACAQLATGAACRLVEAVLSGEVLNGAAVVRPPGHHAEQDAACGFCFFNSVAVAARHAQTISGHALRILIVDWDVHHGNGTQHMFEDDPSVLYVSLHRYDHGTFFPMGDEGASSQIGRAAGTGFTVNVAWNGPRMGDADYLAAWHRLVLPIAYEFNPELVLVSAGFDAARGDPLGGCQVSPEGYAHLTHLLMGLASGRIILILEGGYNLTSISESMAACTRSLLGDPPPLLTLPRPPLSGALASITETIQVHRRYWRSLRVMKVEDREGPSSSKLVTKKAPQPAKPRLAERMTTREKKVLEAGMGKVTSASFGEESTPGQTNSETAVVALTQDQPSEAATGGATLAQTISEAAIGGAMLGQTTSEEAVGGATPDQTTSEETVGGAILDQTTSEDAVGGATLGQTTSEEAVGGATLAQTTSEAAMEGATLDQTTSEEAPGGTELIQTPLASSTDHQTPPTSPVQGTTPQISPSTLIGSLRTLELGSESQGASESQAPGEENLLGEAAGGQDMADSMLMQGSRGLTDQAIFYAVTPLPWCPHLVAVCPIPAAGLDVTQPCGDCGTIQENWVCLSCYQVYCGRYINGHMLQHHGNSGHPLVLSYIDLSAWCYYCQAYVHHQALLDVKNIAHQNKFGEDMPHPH
As to the kind of experiment: Inhibition of HDAC6 (unknown origin).

In assay [2] the target is Histone deacetylase 4 (Homo sapiens) (UniProt P56524). As to the kind of experiment: Inhibition of HDAC4 (unknown origin) at 20 uM.
For assay [3], the target named is T2, Histone deacetylase 8 (Homo sapiens, UniProt Q9BY41).
T2 sequence (Q9BY41 whole entry): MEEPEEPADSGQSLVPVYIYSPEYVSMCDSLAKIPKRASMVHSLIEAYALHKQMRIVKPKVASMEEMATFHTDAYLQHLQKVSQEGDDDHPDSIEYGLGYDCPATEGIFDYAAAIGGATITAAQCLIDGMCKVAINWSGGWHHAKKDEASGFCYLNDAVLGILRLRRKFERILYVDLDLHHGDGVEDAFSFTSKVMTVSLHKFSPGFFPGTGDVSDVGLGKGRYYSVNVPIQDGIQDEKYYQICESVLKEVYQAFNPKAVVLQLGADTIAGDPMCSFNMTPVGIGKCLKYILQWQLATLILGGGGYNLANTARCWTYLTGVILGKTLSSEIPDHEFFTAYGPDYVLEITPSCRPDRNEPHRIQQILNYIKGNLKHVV
Kind of assay: Inhibition of HDAC8 (unknown origin).

Active and inactive are the calls of the source. The rule behind the calls is not given here. Bounds are passed on as bounds.

Sequence of Histone deacetylase 4 (Homo sapiens) (P56524 whole entry): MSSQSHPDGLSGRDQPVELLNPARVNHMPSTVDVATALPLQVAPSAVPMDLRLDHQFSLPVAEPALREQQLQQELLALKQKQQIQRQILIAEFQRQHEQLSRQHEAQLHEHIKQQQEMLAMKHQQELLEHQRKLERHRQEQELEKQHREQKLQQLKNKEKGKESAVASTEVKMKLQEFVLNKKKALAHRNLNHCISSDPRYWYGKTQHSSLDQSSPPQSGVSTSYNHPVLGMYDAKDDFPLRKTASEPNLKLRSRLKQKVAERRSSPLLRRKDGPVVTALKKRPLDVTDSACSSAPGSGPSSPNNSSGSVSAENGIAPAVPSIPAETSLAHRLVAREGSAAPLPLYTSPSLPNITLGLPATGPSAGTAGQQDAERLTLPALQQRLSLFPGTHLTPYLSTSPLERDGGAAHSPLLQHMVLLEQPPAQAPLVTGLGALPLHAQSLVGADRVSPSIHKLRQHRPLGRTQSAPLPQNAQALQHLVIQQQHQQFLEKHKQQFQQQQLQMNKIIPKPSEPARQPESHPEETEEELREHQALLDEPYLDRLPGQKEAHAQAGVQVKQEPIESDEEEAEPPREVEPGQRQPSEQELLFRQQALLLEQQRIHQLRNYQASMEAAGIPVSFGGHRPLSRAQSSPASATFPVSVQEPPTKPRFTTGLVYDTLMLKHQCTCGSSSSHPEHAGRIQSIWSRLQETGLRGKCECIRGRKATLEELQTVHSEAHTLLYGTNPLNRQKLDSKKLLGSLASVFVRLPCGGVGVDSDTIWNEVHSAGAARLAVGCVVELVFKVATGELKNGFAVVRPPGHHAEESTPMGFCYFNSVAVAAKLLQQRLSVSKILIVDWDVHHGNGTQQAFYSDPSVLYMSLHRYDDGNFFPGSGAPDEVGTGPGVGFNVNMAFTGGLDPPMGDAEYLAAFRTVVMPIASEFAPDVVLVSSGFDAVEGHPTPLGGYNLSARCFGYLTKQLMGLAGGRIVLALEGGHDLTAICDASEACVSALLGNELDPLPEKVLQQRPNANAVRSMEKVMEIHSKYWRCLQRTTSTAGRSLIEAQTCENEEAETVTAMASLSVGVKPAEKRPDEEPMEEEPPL

Regarding `NC(=O)C1CCCc2c(-c3ccc(Cl)c(Cl)c3)n[nH]c21` (racemic), the IC50 in assay [1] and in assay [3] was more than 10 µM in each case. In assay [2], the inhibition entry was “inactive”.

Values taken from ChEMBL document CHEMBL3425433, “Discovery of bicyclic pyrazoles as class III histone deacetylase SIRT1 and SIRT2 inhibitors” (Bioorg Med Chem Lett, 2015).
